Consider one compound from patent US20030185864A1, “Preventives or remedies for atopic dermatitis” (priority 2000, published 2003).

Assay [1] concerns auricular edema in atopic dermatitis-induced model mice (Type I Allergy Model). Description: Auricular edema inhibition in atopic dermatitis-induced model mice (type I allergy model, tick extract). The class given is in vivo, NC/Nga mouse. Conditions: for Relative auricular edema increase (%): 20 μl to both sides of auricle once a day from 7th day, measured on 28th day, mean ± SD, n=6. The method, then:
Test Compositions 6 to 8 were obtained by preparing 30% by weight aqueous ethanol solutions containing 0, 1.0 and 3.0% by weight, respectively, of N-acetyl-trans-4-hydroxy-L-proline. The pH values of the aqueous solutions were adjusted to 4.5 with sodium hydroxide.
Atopic dermatitis using NC/Nga mice was carried out in a same manner similar to the method of Sasagawa et al. [16th Japanese Society of Disease Models (1999)]. Auricular edema was induced by intradermal injection of 20 μg of a tick (Dermatophagoides pteronyssinus) extract as the antigen into the auricle of NC/Nga mouse (male, 8 week old, available from Charles River Japan, Inc.), once a day at a predetermined time in the 1st day, 3rd day and every day from 7th days after starting of the test. Each of Test Compositions 6 to 8 was applied at 20 μl to both sides of the auricle as the tested region, 6 hours after administration of the tick extract, once a day from the 7th day after starting of the test. The mice were used as six animals per each group.
A thickness of the auricle was measured on the 28th day after starting of the test using a dial thickness gauge (G-1A, manufactured by PEACOCK), and the relative auricular edema increase (%) was calculated in accordance with the following equation.
(§1) Relative auricular edema increase (%)=[(A1×B2)/(A2×B1)]×100
(§2) A1: Thickness of auricle after passed days in tested mice
(§3) A2: Thickness of auricle at the time of starting of the test in tested mice
(§4) B1: Thickness of auricle after passed days in untreated mice
(§5) B2: Thickness of auricle at the time of starting of the test in untreated mice

Assay [2] concerns auricular edema in atopic dermatitis-induced model mice (Type I and Type IV Allergy Models). Description: Auricular edema inhibition in atopic dermatitis-induced model mice (type I and type IV allergy models, DNCB). In kind it is in vivo, NC/Nga mouse. The note with it: for Relative auricular edema increase (%): 3% by weight, 20 μl to both sides of auricle once a day, mean ± SD, n=6. The procedure: Test Compositions 9 and 10 were obtained by preparing 30% by weight ethanol solutions containing 0 and 3.0% by weight, respectively, of N-acetyl-trans-4-hydroxy-L-proline. The pH values of the aqueous solutions were adjusted to 4.5 with sodium hydroxide.
Atopic dermatitis using NC/Nga mice was carried out in a manner similar to the method of Fujii et al. [Fundamentals and Clinics (Kiso-to-Rinsho), 31(8), 2693 (1997)]. Auricular edema was induced by applying 20 μl of 1.5% dinitrochlorobenzene (DNCB) to both sides of the auricle of NC/Nga mouse (male, 8 week old, available from Charles River Japan, Inc.), once a day at a predetermined time in the 1st, 3rd and 7th days after starting of the test. Each of Test Compositions 9 and 10 was applied at 20 μl to both sides of the auricle as the tested region, 6 hours after the application of DNCB and once a day every day from the 1st day after starting of the test. The mice were used as six animals per each group.
Just before the application of the test compositions to the auricle on the 11th, 12th, 14th and 17th days after starting of the test, a thickness of the auricle was measured using a dial thickness gauge (G-1A, manufactured by PEACOCK), and the relative auricular edema increase (%) was calculated in accordance with the following equation.
as §1, §2, §3, §4, §5

Assay [3] relates to epidermal ceramide synthesis. Description: Evaluation of the amount of epidermal ceramide synthesis in hairless mice. The class given is in vivo, hairless mouse (SKH1:hr/hr:BR). The note with it: for Relative amount of total ceramide synthesis (%) / Relative amount of ceramide III synthesis (%): relative to untreated mice; for Relative amount of ceramide III synthesis (%): 200 μl to dorsal skin once a day for one month, ceramide III = ceramides 1 and 2. The procedure: Test Compositions 1 to 5 were obtained by preparing 30% by weight aqueous ethanol solutions containing 0, 1.0, 3.0, 5.0 and 10.0% by weight, respectively, of N-acetyl-trans-4-hydroxy-L-proline. The pH values of the aqueous solutions were adjusted to 4.5 with sodium hydroxide.
Each of Test Compositions 1 to 5 was applied at 200 μl to the entire dorsal area as the tested region of each hairless mouse (SKH1:hr/hr:BR, male, 7 week old, available from Charles River Japan, Inc.) once a day for one month. The mice were used as four animals per each group.
Before starting of the application and one month after starting of the application, epidermal lipids were extracted from the entire dorsal area as the tested region of each mouse, and the activity of N-acetyl-trans-4-hydroxy-L-proline to synthesize ceramide was evaluated by measuring the ceramide content.
The epidermal lipids were obtained by extraction with 95% ethanol and further extracting the extract with hexane:methanol (2:3), followed by drying. The resulting epidermal lipids were dissolved in chloroform and separated by using silica gel thin layer chromatography in a manner similar to the method of Imokawa et al. [Journal of Investigative Dermatology, 96, 523 (1991)], and then the ceramide content was measured using a flying-spot scanning densitometer (manufactured by Shimadzu Corporation, CS-9000).
The ceramide content was calculated in accordance with the following equation, as the relative value to the change in the amount of ceramide synthesis in untreated mice.
Relative amount of ceramide synthesis (%)=[(A1×B2)/(A2×B1)]×100
A1: Ceramide content after application in tested mice
A2: Ceramide content before application in tested mice
B1: Ceramide content after application in untreated mice
B2: Ceramide content before application in untreated mice
Since it is known that the ceramides exist in several isomer forms, the calculation was carried out on each of the amount of total ceramide synthesis and those of syntheses of various ceramide isomers. As the standards, ceramide III (consisting of ceramides 1 and 2) and ceramide IV (consisting of ceramides 4 and 5) both manufactured by Sigma wer used. Here, total ceramide means the total of ceramides 1, 2, 4 and 5, and ceramide III means the total of ceramides 1 and 2. The ceramides 1, 2, 4 and 5 correspond to the compounds 1, 2, 4 and 5, respectively, described in FIG. 2 of Journal of Lipid Research, 24, 559 (1983).

The mark [4] stands for this setting: concentration of 1 to 3% by weight, long period of continuous use.

Turning to `CC(=O)N1C[C@H](O)C[C@H]1C(=O)O` [N-acetyl-trans-4-hydroxy-L-proline], the “Relative auricular edema increase (%)” value in assay [1] (1% by weight) came to 120.9 ± 3.5%; in assay [1] (3% by weight), 110.1 ± 4.4%; in assay [2] (11th day after starting of test), 360.1 ± 64.2%; in assay [2] (12th day after starting of test) it was 399.7 ± 55.9%; in assay [2] (14th day after starting of test) it was 429.0 ± 72.3%; in assay [2] (17th day after starting of test), 312.1 ± 50.6%. The “inhibition of auricular edema caused by the type I allergy model” value in assay [1] (setting [4]) is “significantly inhibited”. The “inhibition of auricular edema caused by the type I and type IV allergy models” value in assay [2] (concentration of 3% by weight, long period of continuous use) is given as “significantly inhibited”. Besides, the “Relative amount of total ceramide synthesis (%)” value in assay [3] (1% by weight in 30% aqueous ethanol pH 4.5, 200 μl to dorsal skin once a day for one month) is 218.6%; in assay [3] (3% by weight in 30% aqueous ethanol pH 4.5, 200 μl to dorsal skin once a day for one month), 170.6%. The “Relative amount of ceramide III synthesis (%)” value in assay [3] (1% by weight) was 239.5%; in assay [3] (3% by weight), 321.1%; in assay [3] (5% by weight) it was 209.6%; in assay [3] (10% by weight), 185.9%. Further, the “total ceramide content in the epidermal stratum corneum” value in assay [3] (setting [4]) is “significant increase”. The “ceramide III in the epidermal stratum corneum” value in assay [3] (concentration of 1 to 10% by weight, long period of continuous use) was “significant increase”.
